These results are taken from patent US6013667A, “Benzenesulfonylamine compounds, process for preparing them and pharmaceutical compositions” (Adir Et Compagnie, priority 1997, dated 2000).

Structures are written as SMILES.

One experiment addresses vascular TP-receptor. In words: Determination of the pA2 values of the antagonists towards TXA2 on rabbit saphene vein. Further details: species or system rabbit (New Zealand). The note with it: rabbit saphene vein rings, 37° C., U 46619 10^-9 M to 10^-5 M, antagonist 20 minutes. The procedure: Determination of the pA2 Values of the Antagonists Towards TXA2 on Rabbit Saphene Vein
(§1) New Zealand rabbits (2.5 kg) are exsanguinated under anesthesia (pentobarbital, 30 mg/kg) and the saphene veins are rapidly removed and cut into 3-mm rings. These rings are mounted between two hooks in tanks thermostatically adjusted to 37° C., containing physiological saline (composition in mM: 118 NaCl; 25 NaHCO3; 10 glucose; 4.7 KCl; 1.25 CaCl2; 1.19 MgSO4; 1.14 KHPO4).
The physiological saline is bubbled with a mixture of 95% O2 /5% CO2. The lower hook constitutes the fixed point whereas the upper hook is connected to an isometric force sensor. The tissues are placed under a base tension of 1 gram. […]
After mounting, the preparations are left to stand for 90 minutes, with rinsing carried out every 30 minutes. After readjustment of the base tension, a contraction by a single dose of the TXA2 agonist, U 46619 at 10^-5 M, is induced in order to regularize the following contractions. […]
This EC50 is calculated routinely in the following way: the tension values are first converted into percentages relative to the maximum effect and these percentages are then plotted on a graph with the percentages on the Y-axis and the log (concentration) values on the X-axis. […] The concentration corresponding to the half-maximal effect (50%) can readily be calculated using the parameters of the straight line. […]

The test system of experiment [1] is platelet aggregation induced by the TXA2 agonist, U 46619. The experiment is described as follows: Platelet aggregation in man (platelet-rich plasma, induced by U 46619). The class given is cell-based. The note with it: human PRP, U 46619 0.3 μM, read-out: IC50, inhibition of platelet aggregation induced by U 46619. The method, then: Platelet aggregation in man
Venous blood is obtained from human volunteers who have not taken any aspirin for at least 14 days prior to the experiment. The blood is taken onto sodium citrate (0.109 M) (1 vol. of citrate by 9 vol. of blood). The platelet-rich plasma (PRP) is obtained after centrifugation (20° C.) at 200×g for 10 minutes. The number of platelets is, on average, 250,000 PL/mm^3. The PRP is stored at room temperature until the time of the test and is used within 2 hours of the blood being taken. The antagonists are tested according to the procedure described in Example 19, using U 46619 at a concentration of 0.3 μM.

The next experiment has as its system Rabbit saphene vein. In words: Non-endothelium-dependent relaxations in rabbit saphene vein. To be noted: for IC50: Oryctolagus cuniculus, rabbit saphene vein, contraction with KCl (60 mM), read-out: 50% effective relaxant concentration (IC50). The procedure: as §1
The physiological saline is bubbled with a mixture of 95% O2 /5% CO2. The lower hook constitutes the fixed point whereas the upper hook is connected to an isometric force sensor. The tissues are placed under a base tension of 1 gram. The pharmacological substances studied are prepared immediately before use. The drugs are dissolved in water or in dimethyl sulfoxide.
This EC50 is calculated routinely in the following way: the tension values are first converted into percentages relative to the maximum effect and these percentages are then plotted on a graph with the percentages on the Y-axis and the log (concentration) values on the X-axis. A linear regression is then carried out on the points between 10% and 90% (which corresponds to the linear part of the sigmoidal curve). The concentration corresponding to the half-maximal effect (50%) can readily be calculated using the parameters of the straight line. After washing and returning to the base line, the organ is placed in contact with the antagonist (8 different concentrations for each organ) for 20 minutes. A second effect/concentration curve is thus produced in the presence of the antagonist and the "treated" EC50 can then be calculated. This thus provides all the elements which allow the pA2 (competitive antagonism) or pD2 (non-competitive angatonism) to be calculated.
Determination of the Non-Endothelium-Dependent Relaxations in Rabbit Saphene Vein
Rabbit saphene veins are prepared and mounted as described in the above example. After stabilization, a contraction with KCl (60 mM) is induced. […] It is calculated as described in the above example.

As a reminder, the pA2 is the negative logarithm of the molar antagonist concentration that doubles the agonist concentration needed for the same response. A low value points to lower antagonist potency. Molecule `O=C(O)CCc1c(CCO[N+](=O)[O-])ccc2c1CCC(NS(=O)(=O)c1ccc(Cl)cc1)C2` (stereo not shown) [Example 2, 3-{6-[(4-Chlorophenylsulfonyl)amino]-2-(2-nitroxyethyl)-5,6,7,8-tetrahydronaphth-1-yl}propionic acid] gave a pA2 on vascular TP-receptor of 9.5. Besides, the IC50 in experiment [1] was 0.14 µM; with Rabbit saphene vein, 10 µM.
As for `O=C(O)CCc1cc(CCO[N+](=O)[O-])cc2c1CCC(NS(=O)(=O)c1ccc(Cl)cc1)C2` (stereo not shown) [Example 6, 3-{6-[(4-Chlorophenylsulfonyl)amino]-3-(2-nitroxyethyl)-5,6,7,8-tetrahydronaphth-1-yl}propionic acid], the pA2 on vascular TP-receptor is 9.8. Also, the IC50 with Rabbit saphene vein worked out at 7.7 µM.
Turning to `O=C(O)CCc1c(CO[N+](=O)[O-])ccc2c1CCC(NS(=O)(=O)c1ccc(Cl)cc1)C2` (stereo not shown) [Example 4, 3-[6-(4-Chlorophenylsulfonyl)amino-2-nitroxymethyl-5,6,7,8-tetrahydronaphth-1-yl]propionic acid], the IC50 in experiment [1] is 0.14 µM.
Turning to `O=c1onc2cnc3ccccc3n12` [ODQ, reference compound], the “inhibition of relaxations by guanylate cyclase inhibitor (in words)” value in the experiment with Rabbit saphene vein (relaxations induced by the substances of the invention, ODQ) is listed as “capable of inhibiting relaxations”.
